Assay results from PubChem BioAssay (NCI).
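Each compound was tested at five concentrations against cells in 96-well plates for 48 hours. GI50: concentration for 50% inhibition of growth. TGI: total growth inhibition.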

Legend:
Test in all cases: NCI anticancer screen, dose series, 48 h
T-47D breast = tested on: T-47D breast
SK-MEL-2 melanoma = tested on: SK-MEL-2 melanoma
CCRF-CEM leukemia = tested on: CCRF-CEM leukemia
A549 NSCLC = tested on: A549 NSCLC
OVCAR-8 ovarian = tested on: OVCAR-8 ovarian
NCI-H522 lung = tested on: NCI-H522 lung
MCF7 breast = tested on: MCF7 breast
UACC-62 melanoma = tested on: UACC-62 melanoma
SF-295 CNS = tested on: SF-295 CNS
OVCAR-4 ovarian = tested on: OVCAR-4 ovarian
HOP-62 NSCLC = tested on: HOP-62 NSCLC
NCI-H460 lung = tested on: NCI-H460 lung
IGROV1 ovarian = tested on: IGROV1 ovarian
SNB-19 CNS = tested on: SNB-19 CNS
SK-MEL-28 melanoma = tested on: SK-MEL-28 melanoma
SW-620 colon = tested on: SW-620 colon
RXF 393 renal = tested on: RXF 393 renal
TK-10 renal = tested on: TK-10 renal
SNB-75 CNS = tested on: SNB-75 CNS
SN12C renal = tested on: SN12C renal
OVCAR-5 ovarian = tested on: OVCAR-5 ovarian
DU-145 prostate = tested on: DU-145 prostate
HS 578T breast = tested on: HS 578T breast
OVCAR-3 ovarian = tested on: OVCAR-3 ovarian
MDA-MB-435 = tested on: MDA-MB-435
HL-60(TB) leukemia = tested on: HL-60(TB) leukemia
CAKI-1 renal = tested on: CAKI-1 renal
UACC-257 melanoma = tested on: UACC-257 melanoma
HOP-92 NSCLC = tested on: HOP-92 NSCLC
ACHN renal = tested on: ACHN renal
MDA-MB-231 breast = tested on: MDA-MB-231 breast
HCT-116 colon = tested on: HCT-116 colon
NCI-H226 lung = tested on: NCI-H226 lung
U251 CNS = tested on: U251 CNS
LOX IMVI melanoma = tested on: LOX IMVI melanoma
SF-539 CNS = tested on: SF-539 CNS
SK-MEL-5 melanoma = tested on: SK-MEL-5 melanoma
HCT-15 colon = tested on: HCT-15 colon
COLO 205 colon = tested on: COLO 205 colon
SK-OV-3 ovarian = tested on: SK-OV-3 ovarian
NCI/ADR-RES ovarian = tested on: NCI/ADR-RES ovarian
A498 renal = tested on: A498 renal
MOLT-4 leukemia = tested on: MOLT-4 leukemia
SF-268 CNS = tested on: SF-268 CNS
UO-31 renal = tested on: UO-31 renal
786-0 renal = tested on: 786-0 renal
HT29 colon = tested on: HT29 colon
MALME-3M melanoma = tested on: MALME-3M melanoma
KM12 colon = tested on: KM12 colon
HCC-2998 colon = tested on: HCC-2998 colon
BT-549 breast = tested on: BT-549 breast
EKVX NSCLC = tested on: EKVX NSCLC
PC-3 prostate = tested on: PC-3 prostate

With `Oc1cc(Cn2cnc3c(Cl)nc(Cl)nc32)ccc1C12CC3CC(CC(C3)C1)C2` the GI50 (T-47D breast) was 21.8 µM, the TGI (T-47D breast) was 80.6 µM and the GI50 (SK-MEL-2 melanoma) was 18.4 µM. It also gave a TGI (SK-MEL-2 melanoma) of 38 µM, a GI50 (CCRF-CEM leukemia) of 2.17 µM and a TGI (CCRF-CEM leukemia) of 5.78 µM. It also gave a GI50 (A549 NSCLC) of 18.1 µM, a TGI (A549 NSCLC) of 33.2 µM and a GI50 (OVCAR-8 ovarian) of 23.2 µM. For the same compound, the TGI (OVCAR-8 ovarian) was 58 µM, the GI50 (NCI-H522 lung) was 15.2 µM and the TGI (NCI-H522 lung) was 28.5 µM. It also gave a GI50 (MCF7 breast) of 15 µM, a TGI (MCF7 breast) of 28.3 µM and a GI50 (UACC-62 melanoma) of 16.8 µM. It also gave a TGI (UACC-62 melanoma) of 30.5 µM, a GI50 (SF-295 CNS) of 20.5 µM and a TGI (SF-295 CNS) of 47.9 µM. For the same compound, the GI50 (OVCAR-4 ovarian) was 16.4 µM, the TGI (OVCAR-4 ovarian) was 30 µM and the GI50 (HOP-62 NSCLC) was 16.2 µM. It also gave a TGI (HOP-62 NSCLC) of 29.8 µM, a GI50 (NCI-H460 lung) of 16.4 µM and a TGI (NCI-H460 lung) of 30.2 µM. It also gave a GI50 (IGROV1 ovarian) of 15.8 µM, a TGI (IGROV1 ovarian) of 30 µM and a GI50 (SNB-19 CNS) of 17.6 µM. For the same compound, the TGI (SNB-19 CNS) was 31.4 µM, the GI50 (SK-MEL-28 melanoma) was 16.9 µM and the TGI (SK-MEL-28 melanoma) was 31 µM. It also gave a GI50 (SW-620 colon) of 24.6 µM, a TGI (SW-620 colon) of 56.8 µM and a GI50 (RXF 393 renal) of 15.2 µM. The TGI (RXF 393 renal) was 29.3 µM, the GI50 (TK-10 renal) was 19.5 µM and the TGI (TK-10 renal) was 38.8 µM. For the same compound, the GI50 (SNB-75 CNS) was 16.4 µM, the TGI (SNB-75 CNS) was 32.2 µM and the GI50 (SN12C renal) was 16.5 µM. It also gave a TGI (SN12C renal) of 32.2 µM, a GI50 (OVCAR-5 ovarian) of 20.2 µM and a TGI (OVCAR-5 ovarian) of 45.7 µM. The GI50 (DU-145 prostate) was 16.2 µM, the TGI (DU-145 prostate) was 29.7 µM and the GI50 (HS 578T breast) was 49.6 µM. The TGI (HS 578T breast) was greater than 100 µM, the GI50 (OVCAR-3 ovarian) was 18 µM and the TGI (OVCAR-3 ovarian) was 36.3 µM. For the same compound, the GI50 (MDA-MB-435) was 19.9 µM, the TGI (MDA-MB-435) was 48.6 µM and the GI50 (HL-60(TB) leukemia) was 4.36 µM. It also gave a TGI (HL-60(TB) leukemia) of 15.7 µM, a GI50 (CAKI-1 renal) of 15.4 µM and a TGI (CAKI-1 renal) of 31.3 µM. The GI50 (UACC-257 melanoma) was 19 µM, the TGI (UACC-257 melanoma) was 39.2 µM and the GI50 (HOP-92 NSCLC) was 14.6 µM. The TGI (HOP-92 NSCLC) was 27.8 µM, the GI50 (ACHN renal) was 17.9 µM and the TGI (ACHN renal) was 31.7 µM. The GI50 (MDA-MB-231 breast) was 15 µM, the TGI (MDA-MB-231 breast) was 30.3 µM and the GI50 (HCT-116 colon) was 14 µM. It also gave a TGI (HCT-116 colon) of 26.9 µM, a GI50 (NCI-H226 lung) of 23.3 µM and a TGI (NCI-H226 lung) of 63.7 µM. For the same compound, the GI50 (U251 CNS) was 16.6 µM, the TGI (U251 CNS) was 30.2 µM and the GI50 (LOX IMVI melanoma) was 4.12 µM. It also gave a TGI (LOX IMVI melanoma) of 18.6 µM, a GI50 (SF-539 CNS) of 23.6 µM and a TGI (SF-539 CNS) of 45.1 µM. The GI50 (SK-MEL-5 melanoma) was 15 µM, the TGI (SK-MEL-5 melanoma) was 32 µM and the GI50 (HCT-15 colon) was 16.3 µM. It also gave a TGI (HCT-15 colon) of 29.8 µM, a GI50 (COLO 205 colon) of 19.9 µM and a TGI (COLO 205 colon) of 37.2 µM. The GI50 (SK-OV-3 ovarian) was 24.7 µM, the TGI (SK-OV-3 ovarian) was 55.1 µM and the GI50 (NCI/ADR-RES ovarian) was 21.9 µM. It also gave a TGI (NCI/ADR-RES ovarian) of 57.2 µM, a GI50 (A498 renal) greater than 100 µM and a TGI (A498 renal) greater than 100 µM. The GI50 (MOLT-4 leukemia) was 3.72 µM, the TGI (MOLT-4 leukemia) was 11.2 µM and the GI50 (SF-268 CNS) was 14.4 µM. The TGI (SF-268 CNS) was 28 µM, the GI50 (UO-31 renal) was 17.3 µM and the TGI (UO-31 renal) was 31.1 µM. It also gave a GI50 (786-0 renal) of 18.5 µM, a TGI (786-0 renal) of 34.4 µM and a GI50 (HT29 colon) of 16 µM. The TGI (HT29 colon) was 29.5 µM, the GI50 (MALME-3M melanoma) was 11.8 µM and the TGI (MALME-3M melanoma) was 27.8 µM. For the same compound, the GI50 (KM12 colon) was 17.5 µM, the TGI (KM12 colon) was 34.4 µM and the GI50 (HCC-2998 colon) was 16 µM. The TGI (HCC-2998 colon) was 30.4 µM, the GI50 (BT-549 breast) was 17.5 µM and the TGI (BT-549 breast) was 34.4 µM. For the same compound, the GI50 (EKVX NSCLC) was 23.8 µM, the TGI (EKVX NSCLC) was 53.1 µM and the GI50 (PC-3 prostate) was 15.5 µM. It also gave a TGI (PC-3 prostate) of 28.9 µM.
